Measured values taken from US9611249B2, “1H-indazole-3-carboxamide compounds as glycogen synthase kinase 3 beta inhibitors” (AZIENDE CHIMICHE RIUNITE ANGELINI FRANCESCO A.C.R.A.F. …, priority 2012, dated 2017).

Assays:
GSK3beta (h) = GSK3beta (h) (Homo sapiens (Human), UniProt P49841); assay: Kinase selectivity panel: GSK3beta (h); type: biochemical; conditions: GSK3beta (h); 10 μM in duplicate; read-out: % inhibition of control values
Procedure: (§1) (a) Compounds 1 and 2 were tested against a panel of 60 kinases in order to assess their selectivity. The assays were chosen taking into consideration the diversity of assay families.
(§2) Tested kinases were representative of following kinase sub-families: • protein-serine/threonine kinases; • protein-tyrosine kinases; • other kinases; and • atypical kinases.
(§3) Human recombinant kinases were incubated in the presence of specific peptide substrates plus ATP for different times (10, 15, 30, 60 or 90 minutes) at 22° C. Phosphorylated substrate was detected by LANCE or HTRF technology (CISBIO, MA, USA). The compounds were tested at 10 μM in duplicate.
(§4) The results are expressed as a percentage of inhibition of control specific activity obtained in the presence of the test compounds and are reported in the following Table 5.
(§5) The results are expressed as a percent of inhibition of control specific activity obtained in the presence of the test compounds and are reported in the following Table 6.

DCAMKL1 (h) = DCAMKL1 (h) (Homo sapiens (Human), UniProt O15075); assay: Kinase selectivity panel: DCAMKL1 (h); type: biochemical; conditions: 10 μM in duplicate, read-out: % inhibition of control values
Procedure: as §1, §2, §3, §4
(§6) (b) Compounds 3, 8, 29 and 31 were tested against the same panel of 60 kinases under the same conditions described above for compounds 1 and 2.
as §5

TRKA (h) = TRKA (h) (Homo sapiens (Human), UniProt P04629); assay: Kinase selectivity panel: TRKA (h); type: biochemical; conditions: 10 μM in duplicate, read-out: % inhibition of control values
Procedure: as §1, §2, §3, §4, §6, §5

EphB4 kinase (h) = EphB4 kinase (h) (Homo sapiens (Human), UniProt P54760); assay: Kinase selectivity panel: EphB4 kinase (h); type: biochemical; conditions: 10 μM in duplicate, read-out: % inhibition of control values
Procedure: as §1, §2, §3, §4, §6, §5

NEK7 (h) = NEK7 (h) (Homo sapiens (Human), UniProt Q8TDX7); assay: Kinase selectivity panel: NEK7 (h); type: biochemical; conditions: 10 μM in duplicate, read-out: % inhibition of control values
Procedure: as §1, §2, §3, §4, §6, §5

IKKepsilon (h) (IKBKE) = IKKepsilon (h) (IKBKE) (Homo sapiens (Human), UniProt Q14164); assay: Kinase selectivity panel: IKKepsilon (h) (IKBKE); type: biochemical; conditions: 10 μM in duplicate, read-out: % inhibition of control values
Procedure: as §1, §2, §3, §4, §6, §5

MAPKAPK2 (h) = MAPKAPK2 (h) (Homo sapiens (Human), UniProt P49137); assay: Kinase selectivity panel: MAPKAPK2 (h); type: biochemical; conditions: 10 μM in duplicate, read-out: % inhibition of control values
Procedure: as §1, §2, §3, §4, §6, §5

DLK1 (h) (MAP3K12) = DLK1 (h) (MAP3K12) (Homo sapiens (Human), UniProt Q12852); assay: Kinase selectivity panel: DLK1 (h) (MAP3K12); type: biochemical; conditions: 10 μM in duplicate, read-out: % inhibition of control values
Procedure: as §1, §2, §3, §4, §6, §5

RSK2 (h) = RSK2 (h) (Homo sapiens (Human), UniProt P51812); assay: Kinase selectivity panel: RSK2 (h); type: biochemical; conditions: 10 μM in duplicate, read-out: % inhibition of control values
Procedure: as §1, §2, §3, §4, §6, §5

p38delta kinase (h) = p38delta kinase (h) (Homo sapiens (Human), UniProt O15264); assay: Kinase selectivity panel: p38delta kinase (h); type: biochemical; conditions: 10 μM in duplicate, read-out: % inhibition of control values
Procedure: as §1, §2, §3, §4, §6, §5

Akt1/PKBalpha (h) = Akt1/PKBalpha (h) (Homo sapiens (Human), UniProt P31749); assay: Kinase selectivity panel: Akt1/PKBalpha (h); type: biochemical; conditions: 10 μM in duplicate, read-out: % inhibition of control values
Procedure: as §1, §2, §3, §4, §6, §5

PKCbeta 1 (h) = PKCbeta 1 (h) (Homo sapiens (Human), UniProt P05771); assay: Kinase selectivity panel: PKCbeta 1 (h); type: biochemical; conditions: 10 μM in duplicate, read-out: % inhibition of control values
Procedure: as §1, §2, §3, §4, §6, §5

MNK2 (h) = MNK2 (h) (Homo sapiens (Human), UniProt Q9HBH9); assay: Kinase selectivity panel: MNK2 (h); type: biochemical; conditions: 10 μM in duplicate, read-out: % inhibition of control values
Procedure: as §1, §2, §3, §4, §6, §5

CDK5/p35 (h) = CDK5/p35 (h) (Homo sapiens (Human), UniProt Q00535); assay: Kinase selectivity panel: CDK5/p35 (h); type: biochemical; conditions: 10 μM in duplicate, read-out: % inhibition of control values
Procedure: as §1, §2, §3, §4, §6, §5

IRAK4 (h) = IRAK4 (h) (Homo sapiens (Human), UniProt Q9NWZ3); assay: Kinase selectivity panel: IRAK4 (h); type: biochemical; conditions: 10 μM in duplicate, read-out: % inhibition of control values
Procedure: as §1, §2, §3, §4, §6, §5

PCTAIRE1 kinase (h) = PCTAIRE1 kinase (h) (Homo sapiens (Human), UniProt Q00536); assay: Kinase selectivity panel: PCTAIRE1 kinase (h); type: biochemical; conditions: 10 μM in duplicate, read-out: % inhibition of control values
Procedure: as §1, §2, §3, §4, §6, §5

PAK1 (h) = PAK1 (h) (Homo sapiens (Human), UniProt Q13153); assay: Kinase selectivity panel: PAK1 (h); type: biochemical; conditions: 10 μM in duplicate, read-out: % inhibition of control values
Procedure: as §1, §2, §3, §4, §6, §5

EphB2 kinase (h) = EphB2 kinase (h) (Homo sapiens (Human), UniProt P29323); assay: Kinase selectivity panel: EphB2 kinase (h); type: biochemical; conditions: 10 μM in duplicate, read-out: % inhibition of control values
Procedure: as §1, §2, §3, §4, §6, §5

Fyn kinase (h) = Fyn kinase (h) (Homo sapiens (Human), UniProt P06241); assay: Kinase selectivity panel: Fyn kinase (h); type: biochemical; conditions: 10 μM in duplicate, read-out: % inhibition of control values
Procedure: as §1, §2, §3, §4, §6, §5

CDK2 (h) (cycA) = CDK2 (h) (cycA) (Homo sapiens (Human), UniProt P24941); assay: Kinase selectivity panel: CDK2 (h) (cycA); type: biochemical; conditions: 10 μM in duplicate, read-out: % inhibition of control values
Procedure: as §1, §2, §3, §4, §6, §5

DAPK1 (h) = DAPK1 (h) (Homo sapiens (Human), UniProt P53355); assay: Kinase selectivity panel: DAPK1 (h); type: biochemical; conditions: 10 μM in duplicate, read-out: % inhibition of control values
Procedure: as §1, §2, §3, §4, §6, §5

FGFR1 kinase (h) = FGFR1 kinase (h) (Homo sapiens (Human), UniProt P11362); assay: Kinase selectivity panel: FGFR1 kinase (h); type: biochemical; conditions: 10 μM in duplicate, read-out: % inhibition of control values
Procedure: as §1, §2, §3, §4, §6, §5

Abl kinase (h) = Abl kinase (h) (Homo sapiens (Human), UniProt P00519); assay: Kinase selectivity panel: Abl kinase (h); type: biochemical; conditions: 10 μM in duplicate, read-out: % inhibition of control values
Procedure: as §1, §2, §3, §4, §6, §5

IGF1R kinase (h) = IGF1R kinase (h) (Homo sapiens (Human), UniProt P08069); assay: Kinase selectivity panel: IGF1R kinase (h); type: biochemical; conditions: 10 μM in duplicate, read-out: % inhibition of control values
Procedure: as §1, §2, §3, §4, §6, §5

PKA (h) = PKA (h) (Homo sapiens (Human), UniProt P17612); assay: Kinase selectivity panel: PKA (h); type: biochemical; conditions: 10 μM in duplicate, read-out: % inhibition of control values
Procedure: as §1, §2, §3, §4, §6, §5

IKKalpha (h) = IKKalpha (h) (Homo sapiens (Human), UniProt O15111); assay: Kinase selectivity panel: IKKalpha (h); type: biochemical; conditions: 10 μM in duplicate, read-out: % inhibition of control values
Procedure: as §1, §2, §3, §4, §6, §5

IRK (h) (InsR) = IRK (h) (InsR) (Homo sapiens (Human), UniProt P06213); assay: Kinase selectivity panel: IRK (h) (InsR); type: biochemical; conditions: 10 μM in duplicate, read-out: % inhibition of control values
Procedure: as §1, §2, §3, §4, §6, §5

ERK1 (h) = ERK1 (h) (Homo sapiens (Human), UniProt P27361); assay: Kinase selectivity panel: ERK1 (h); type: biochemical; conditions: 10 μM in duplicate, read-out: % inhibition of control values
Procedure: as §1, §2, §3, §4, §6, §5

CK1alpha (h) = CK1alpha (h) (Homo sapiens (Human), UniProt P48729); assay: Kinase selectivity panel: CK1alpha (h); type: biochemical; conditions: 10 μM in duplicate, read-out: % inhibition of control values
Procedure: as §1, §2, §3, §4, §6, §5

AMPKalpha = assay: Kinase selectivity panel: AMPKalpha; type: biochemical, human; conditions: 10 μM in duplicate
Procedure: as §1, §2, §3, §4, §6, §5

CaMK4 (h) = CaMK4 (h) (Homo sapiens (Human), UniProt Q16566); assay: Kinase selectivity panel: CaMK4 (h); type: biochemical; conditions: 10 μM in duplicate, read-out: % inhibition of control values
Procedure: as §1, §2, §3, §4, §6, §5

Ret kinase (h) = Ret kinase (h) (Homo sapiens (Human), UniProt P07949); assay: Kinase selectivity panel: Ret kinase (h); type: biochemical; conditions: 10 μM in duplicate, read-out: % inhibition of control values
Procedure: as §1, §2, §3, §4, §6, §5

p38alpha kinase (h) = p38alpha kinase (h) (Homo sapiens (Human), UniProt Q16539); assay: Kinase selectivity panel: p38alpha kinase (h); type: biochemical; conditions: 10 μM in duplicate, read-out: % inhibition of control values
Procedure: as §1, §2, §3, §4, §6, §5

CHK1 (h) = CHK1 (h) (Homo sapiens (Human), UniProt O14757); assay: Kinase selectivity panel: CHK1 (h); type: biochemical; conditions: 10 μM in duplicate, read-out: % inhibition of control values
Procedure: as §1, §2, §3, §4, §6, §5

PAK1 (h), sequence (Q13153 whole entry): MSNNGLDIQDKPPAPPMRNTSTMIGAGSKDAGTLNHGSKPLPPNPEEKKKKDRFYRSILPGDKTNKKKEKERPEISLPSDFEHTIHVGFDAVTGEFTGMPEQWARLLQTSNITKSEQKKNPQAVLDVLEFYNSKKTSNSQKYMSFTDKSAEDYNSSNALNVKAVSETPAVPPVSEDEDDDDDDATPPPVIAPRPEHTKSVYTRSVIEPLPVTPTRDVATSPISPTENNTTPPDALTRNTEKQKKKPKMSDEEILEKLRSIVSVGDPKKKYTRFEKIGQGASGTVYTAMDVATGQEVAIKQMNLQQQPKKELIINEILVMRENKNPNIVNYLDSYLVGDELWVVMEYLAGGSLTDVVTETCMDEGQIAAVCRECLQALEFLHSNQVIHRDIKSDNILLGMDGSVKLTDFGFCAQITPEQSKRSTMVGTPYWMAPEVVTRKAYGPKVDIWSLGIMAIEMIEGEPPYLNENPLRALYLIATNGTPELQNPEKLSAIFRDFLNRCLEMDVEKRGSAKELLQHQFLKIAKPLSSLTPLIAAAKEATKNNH
MAPKAPK2 (h), sequence (P49137 whole entry): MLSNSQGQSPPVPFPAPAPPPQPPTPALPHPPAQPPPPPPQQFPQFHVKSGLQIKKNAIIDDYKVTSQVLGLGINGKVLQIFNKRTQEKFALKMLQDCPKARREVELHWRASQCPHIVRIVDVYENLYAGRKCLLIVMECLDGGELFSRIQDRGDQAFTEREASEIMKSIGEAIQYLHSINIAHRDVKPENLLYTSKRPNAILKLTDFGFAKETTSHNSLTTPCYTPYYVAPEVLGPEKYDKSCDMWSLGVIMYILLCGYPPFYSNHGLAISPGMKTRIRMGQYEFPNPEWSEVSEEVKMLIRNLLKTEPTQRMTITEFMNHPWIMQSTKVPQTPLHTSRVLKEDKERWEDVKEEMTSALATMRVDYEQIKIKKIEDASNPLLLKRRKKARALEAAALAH
Fyn kinase (h), sequence (P06241 whole entry): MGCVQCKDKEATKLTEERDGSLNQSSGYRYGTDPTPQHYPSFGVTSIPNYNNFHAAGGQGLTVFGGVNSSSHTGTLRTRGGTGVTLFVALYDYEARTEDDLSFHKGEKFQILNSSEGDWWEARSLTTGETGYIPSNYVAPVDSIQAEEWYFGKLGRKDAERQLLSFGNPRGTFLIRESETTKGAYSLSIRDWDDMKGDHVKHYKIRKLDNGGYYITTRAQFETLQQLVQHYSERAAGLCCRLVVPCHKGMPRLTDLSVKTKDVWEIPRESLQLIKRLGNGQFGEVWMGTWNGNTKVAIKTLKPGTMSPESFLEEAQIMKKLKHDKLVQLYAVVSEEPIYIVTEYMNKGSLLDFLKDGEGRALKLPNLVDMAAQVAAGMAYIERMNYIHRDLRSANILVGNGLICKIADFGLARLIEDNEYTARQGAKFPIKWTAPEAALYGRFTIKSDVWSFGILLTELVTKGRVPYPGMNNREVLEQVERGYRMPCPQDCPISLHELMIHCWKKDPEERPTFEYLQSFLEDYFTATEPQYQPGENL
Abl kinase (h), sequence (P00519 whole entry): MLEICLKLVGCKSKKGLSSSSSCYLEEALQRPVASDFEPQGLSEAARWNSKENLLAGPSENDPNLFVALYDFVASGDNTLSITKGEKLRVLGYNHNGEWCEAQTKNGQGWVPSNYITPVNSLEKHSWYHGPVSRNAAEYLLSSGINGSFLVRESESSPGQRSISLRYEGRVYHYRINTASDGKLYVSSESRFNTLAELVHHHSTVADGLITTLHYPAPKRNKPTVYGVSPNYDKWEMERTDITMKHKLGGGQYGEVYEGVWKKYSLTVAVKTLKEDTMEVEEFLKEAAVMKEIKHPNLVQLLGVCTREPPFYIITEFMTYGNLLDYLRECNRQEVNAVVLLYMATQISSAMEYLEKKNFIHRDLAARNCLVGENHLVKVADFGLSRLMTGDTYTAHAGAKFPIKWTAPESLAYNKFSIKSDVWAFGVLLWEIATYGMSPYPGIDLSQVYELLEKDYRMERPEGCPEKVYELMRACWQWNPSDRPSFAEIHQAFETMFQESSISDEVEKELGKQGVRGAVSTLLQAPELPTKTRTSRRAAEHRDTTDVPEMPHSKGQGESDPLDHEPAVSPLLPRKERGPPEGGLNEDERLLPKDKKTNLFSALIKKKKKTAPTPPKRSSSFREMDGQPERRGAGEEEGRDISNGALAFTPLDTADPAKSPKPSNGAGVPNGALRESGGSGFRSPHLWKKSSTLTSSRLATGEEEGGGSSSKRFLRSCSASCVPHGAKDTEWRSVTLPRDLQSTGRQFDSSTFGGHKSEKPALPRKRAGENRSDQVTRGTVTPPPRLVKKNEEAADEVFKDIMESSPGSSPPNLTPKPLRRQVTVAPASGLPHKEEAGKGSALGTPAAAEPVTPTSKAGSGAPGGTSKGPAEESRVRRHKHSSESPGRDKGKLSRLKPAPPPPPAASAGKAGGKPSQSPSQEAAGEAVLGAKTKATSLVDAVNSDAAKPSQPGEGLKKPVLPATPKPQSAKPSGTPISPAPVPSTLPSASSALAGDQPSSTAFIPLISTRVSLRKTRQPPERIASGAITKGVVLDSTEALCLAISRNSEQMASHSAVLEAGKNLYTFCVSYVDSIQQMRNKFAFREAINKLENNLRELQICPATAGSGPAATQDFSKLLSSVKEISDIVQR
TRKA (h), sequence (P04629 33-796): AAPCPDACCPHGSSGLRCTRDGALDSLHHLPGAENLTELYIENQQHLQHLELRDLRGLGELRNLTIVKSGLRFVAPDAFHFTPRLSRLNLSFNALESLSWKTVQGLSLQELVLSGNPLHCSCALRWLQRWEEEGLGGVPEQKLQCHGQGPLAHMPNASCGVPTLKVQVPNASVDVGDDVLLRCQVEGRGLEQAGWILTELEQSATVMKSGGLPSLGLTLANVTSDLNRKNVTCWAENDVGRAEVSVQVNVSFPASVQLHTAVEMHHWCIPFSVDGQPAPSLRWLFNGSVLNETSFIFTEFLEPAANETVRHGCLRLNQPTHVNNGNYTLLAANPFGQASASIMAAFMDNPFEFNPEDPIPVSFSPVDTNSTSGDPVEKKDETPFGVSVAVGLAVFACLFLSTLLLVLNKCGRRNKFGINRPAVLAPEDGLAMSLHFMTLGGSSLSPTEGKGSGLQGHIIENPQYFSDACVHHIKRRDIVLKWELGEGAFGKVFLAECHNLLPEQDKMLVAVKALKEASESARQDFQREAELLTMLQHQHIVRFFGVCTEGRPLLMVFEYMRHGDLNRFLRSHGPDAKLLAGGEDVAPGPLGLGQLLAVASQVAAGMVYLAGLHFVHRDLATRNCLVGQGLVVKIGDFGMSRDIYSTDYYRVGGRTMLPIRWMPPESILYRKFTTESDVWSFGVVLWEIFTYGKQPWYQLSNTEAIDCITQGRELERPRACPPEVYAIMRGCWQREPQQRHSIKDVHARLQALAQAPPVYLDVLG
MNK2 (h), sequence (Q9HBH9 whole entry): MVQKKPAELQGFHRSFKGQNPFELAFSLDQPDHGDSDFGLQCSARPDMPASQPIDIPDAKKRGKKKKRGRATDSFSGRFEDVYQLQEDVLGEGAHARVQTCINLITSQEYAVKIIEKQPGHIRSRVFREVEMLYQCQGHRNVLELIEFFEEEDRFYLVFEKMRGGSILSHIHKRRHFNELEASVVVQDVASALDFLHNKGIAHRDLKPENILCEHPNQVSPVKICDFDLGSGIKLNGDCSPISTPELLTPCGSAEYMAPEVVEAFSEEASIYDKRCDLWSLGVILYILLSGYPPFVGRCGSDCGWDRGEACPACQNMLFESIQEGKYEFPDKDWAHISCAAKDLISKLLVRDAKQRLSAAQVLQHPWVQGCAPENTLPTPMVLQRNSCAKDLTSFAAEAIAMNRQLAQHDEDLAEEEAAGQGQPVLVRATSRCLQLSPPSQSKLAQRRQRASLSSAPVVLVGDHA
GSK3beta (h), sequence (P49841 whole entry): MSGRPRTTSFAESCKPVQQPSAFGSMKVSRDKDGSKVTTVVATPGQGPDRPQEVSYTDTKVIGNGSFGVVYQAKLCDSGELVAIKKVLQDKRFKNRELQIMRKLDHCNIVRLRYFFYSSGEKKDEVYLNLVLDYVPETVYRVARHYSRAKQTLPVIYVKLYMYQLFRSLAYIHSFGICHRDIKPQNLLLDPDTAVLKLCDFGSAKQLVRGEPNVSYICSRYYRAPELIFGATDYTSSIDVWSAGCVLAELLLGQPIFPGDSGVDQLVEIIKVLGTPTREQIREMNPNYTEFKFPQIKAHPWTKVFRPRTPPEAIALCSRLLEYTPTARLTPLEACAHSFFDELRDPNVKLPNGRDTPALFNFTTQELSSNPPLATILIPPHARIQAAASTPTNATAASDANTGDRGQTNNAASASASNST
p38delta kinase (h), sequence (O15264 whole entry): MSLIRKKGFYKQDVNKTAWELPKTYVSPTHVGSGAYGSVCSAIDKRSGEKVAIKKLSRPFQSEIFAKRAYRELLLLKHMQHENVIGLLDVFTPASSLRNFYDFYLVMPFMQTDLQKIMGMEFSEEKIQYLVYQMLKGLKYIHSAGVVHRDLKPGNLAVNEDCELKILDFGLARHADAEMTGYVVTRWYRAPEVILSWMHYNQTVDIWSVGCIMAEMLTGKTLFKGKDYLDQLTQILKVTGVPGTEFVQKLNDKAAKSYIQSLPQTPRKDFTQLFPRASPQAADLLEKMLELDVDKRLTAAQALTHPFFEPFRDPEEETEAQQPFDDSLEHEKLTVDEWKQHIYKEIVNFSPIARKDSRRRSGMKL
ERK1 (h), sequence (P27361 whole entry): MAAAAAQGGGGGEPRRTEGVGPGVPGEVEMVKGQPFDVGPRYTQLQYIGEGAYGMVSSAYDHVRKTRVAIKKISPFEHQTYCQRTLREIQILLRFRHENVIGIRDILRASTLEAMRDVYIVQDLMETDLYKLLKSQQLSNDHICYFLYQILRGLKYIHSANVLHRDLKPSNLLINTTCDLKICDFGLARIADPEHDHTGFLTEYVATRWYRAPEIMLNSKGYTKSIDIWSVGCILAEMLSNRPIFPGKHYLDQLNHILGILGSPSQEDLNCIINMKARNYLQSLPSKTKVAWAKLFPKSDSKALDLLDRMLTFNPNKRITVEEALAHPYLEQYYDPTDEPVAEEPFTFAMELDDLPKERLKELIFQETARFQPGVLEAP

Structure (SMILES) | inhibition at 10 µM (GSK3beta (h)) | inhibition at 10 µM (DCAMKL1 (h)) | inhibition at 10 µM (TRKA (h)) | inhibition at 10 µM (EphB4 kinase (h)) | inhibition at 10 µM (NEK7 (h)) | inhibition at 10 µM (IKKepsilon (h) (IKBKE)) | inhibition at 10 µM (MAPKAPK2 (h)) | inhibition at 10 µM (DLK1 (h) (MAP3K12)) | inhibition at 10 µM (RSK2 (h)) | inhibition at 10 µM (p38delta kinase (h)) | inhibition at 10 µM (Akt1/PKBalpha (h)) | inhibition at 10 µM (PKCbeta 1 (h)) | inhibition at 10 µM (MNK2 (h)) | inhibition at 10 µM (CDK5/p35 (h)) | inhibition at 10 µM (IRAK4 (h)) | inhibition at 10 µM (PCTAIRE1 kinase (h)) | inhibition at 10 µM (PAK1 (h)) | inhibition at 10 µM (EphB2 kinase (h)) | inhibition at 10 µM (Fyn kinase (h)) | inhibition at 10 µM (CDK2 (h) (cycA)) | other results
COc1ccc2[nH]nc(C(=O)NCC3CCN(CC(=O)O)CC3)c2c1 [Compound 1, [4-({[(5-methoxy-1H-indazol-3-yl)-carbonyl]amino}methyl)piperidin-1-yl]acetic acid] | 94% | 0% | 1% | 2% | 0% | 0% | 0% | 0% | 0% | 0% | 0% | 0% | 0% | 19% | 0% | 22% | 1% | 4% | 0% | 18% | inhibition at 10 µM (DAPK1 (h)): 22%; inhibition at 10 µM (FGFR1 kinase (h)): 0%; inhibition at 10 µM (Abl kinase (h)): 0%; inhibition at 10 µM (IGF1R kinase (h)): 0%; inhibition at 10 µM (PKA (h)): 0%; inhibition at 10 µM (IKKalpha (h)): 0%; inhibition at 10 µM (IRK (h) (InsR)): 0%; inhibition at 10 µM (ERK1 (h)): 20%; inhibition at 10 µM (CK1alpha (h)): 0%; % inhibition of control values (AMPKalpha): 16%; inhibition at 10 µM (CaMK4 (h)): 0%; inhibition at 10 µM (Ret kinase (h)): 0%; inhibition at 10 µM (p38alpha kinase (h)): 0%; inhibition at 10 µM (CHK1 (h)): 5%
COCCN1CCC(CNC(=O)c2n[nH]c3ccc(OC)cc23)CC1 [Compound 2, 5-methoxy-N-{[1-(2-methoxyethyl)-piperidin-4-yl]methyl}-1H-indazole-3-carboxamide] | 90% | 3% | 0% | 17% | 0% | 0% | 0% | 0% | 1% | 0% | 4% | 1% | 0% | 13% | 8% | 71% | 0% | 7% | 3% | 11% | inhibition at 10 µM (DAPK1 (h)): 12%; inhibition at 10 µM (FGFR1 kinase (h)): 0%; inhibition at 10 µM (Abl kinase (h)): 0%; inhibition at 10 µM (IGF1R kinase (h)): 0%; inhibition at 10 µM (PKA (h)): 2%; inhibition at 10 µM (IKKalpha (h)): 0%; inhibition at 10 µM (IRK (h) (InsR)): 0%; inhibition at 10 µM (ERK1 (h)): 15%; inhibition at 10 µM (CK1alpha (h)): 12%; % inhibition of control values (AMPKalpha): 19%; inhibition at 10 µM (CaMK4 (h)): 0%; inhibition at 10 µM (Ret kinase (h)): 0%; inhibition at 10 µM (p38alpha kinase (h)): 0%; inhibition at 10 µM (CHK1 (h)): 8%
